# Measured values from ChEMBL document CHEMBL1138443, “Carbonic anhydrase inhibitors. Cloning, characterization, and inhibition studies of a new beta-carbonic anhydrase from Mycobacterium tuberculosis” (J Med Chem, 2009).
# Target: T1, Beta-carbonic anhydrase 1 (Mycobacterium tuberculosis, UniProt P9WPJ7)
# T1 sequence (P9WPJ7 whole entry): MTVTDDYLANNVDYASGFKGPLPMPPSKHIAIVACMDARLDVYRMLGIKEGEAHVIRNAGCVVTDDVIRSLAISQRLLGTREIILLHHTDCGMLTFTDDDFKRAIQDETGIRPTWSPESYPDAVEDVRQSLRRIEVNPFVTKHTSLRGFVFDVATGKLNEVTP
structure (smiles),measurement,value
CC(=O)/N=c1/sc(S(N)(=O)=O)nn1C [METHAZOLAMIDE],Ki,0.781 µM
